From US12673954B2 (BRISTOL-MYERS SQUIBB COMPANY, priority 2021, dated 2026)
Read-outs that look alike come from different tables or passages of the source.

Assays:
[1] = test system: NF-κB pathway, THP1-Dual™ cells; experiment: STING reporter assay in THP1-Dual cells, NF-κB pathway (SEAP, QUANTI-Blue); format: cell-based, human; details: THP1-Dual cells, 10% human plasma, 20 hours, SEAP, 100% activation = 100 μM cGAMP, read-out: NFkB (EC50 μM)
Method in brief: (§1)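 Activation normalised between DMSO-only baseline and 100 μM cGAMP maximum, after 20 h compound exposure (starting at 100 μM final) at 37° C, 5% CO2. Supernatant SEAP (QUANTI-Blue, OD620) reports NF-κB; secreted luciferase (QUANTI-Luc, RLU at 5 min) reports IRF.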

[2] = test system: IRF pathway, THP1-Dual™ cells; experiment: STING reporter assay in THP1-Dual cells, IRF pathway (Lucia luciferase, QUANTI-Luc); format: cell-based, human; details: THP1-Dual cells, 10% human plasma, 20 hours, Lucia luciferase, 100% activation = 100 μM cGAMP, read-out: IRF (EC50 μM)
Method in brief: as §1

Row | SMILES | EC50 [1] | EC50 [2] | EC50 ([1]; Homo sapiens, THP1-Dual, 20 h) | EC50 ([2]; Homo sapiens, THP1-Dual, 20 h)
1 | CC(OC(=O)c1cc(C(F)(F)F)cc2cc(CNC(=O)c3cnn4cccnc34)oc12)C(F)(F)F (single isomer, unassigned) [EXAMPLE 350, 1,1,1-Trifluoropropan-2-yl 2-((pyrazolo[1,5-a]pyrimidine-3-carboxamido)methyl)-5-(trifluoromethyl)benzofuran-7-carboxylate] | 54 µM | 17 µM |  | 
2 | COC(=O)c1cc(C)cc2cc(CNC(=O)c3cncc4[nH]cnc34)oc12 [Example 91, Methyl 2-((3H-imidazo[4,5-c]pyridine-7-carboxamido)methyl)-5-methylbenzofuran-7-carboxylate] |  |  | 1.5 µM | 1.2 µM
3 | O=C(NO)c1cc(Cl)cc2cc(CNC(=O)c3cnn4cccnc34)oc12 [EXAMPLE 405, N-((5-Chloro-7-(hydroxycarbamoyl)benzofuran-2-yl)methyl)pyrazolo[1,5-a]pyrimidine-3-carboxamide] |  |  | 61 µM | 30 µM
4 | C=Cc1c(CNC(=O)c2cnn3cccnc23)oc2c(C(=O)OC)cc(C)cc12 [EXAMPLE 124, Methyl 5-methyl-2-((pyrazolo[1,5-a]pyrimidine-3-carboxamido)methyl)-3-vinylbenzofuran-7-carboxylate] |  |  | 6.7 µM | 5.7 µM
5 | COC(=O)c1cc(F)cc2cc(C(C)NC(=O)c3cnn4cccnc34)oc12 (centres unmarked) [EXAMPLE 45, Methyl-5-fluoro-2-(1-(pyrazolo[1,5-a]pyrimidine-3-carboxamido)ethyl)benzofuran-7-carboxylate] |  |  | 0.99 µM | 0.98 µM
6 | O=C(OC1CC(F)(F)C1(F)F)c1cc(F)cc2cc(CNC(=O)c3cnn4cccnc34)oc12 (single isomer, unassigned) [EXAMPLE 322, 2,2,3,3-Tetrafluorocyclobutyl 5-fluoro-2-((pyrazolo[1,5-a]pyrimidine-3-carboxamido)methyl)benzofuran-7-carboxylate] | 3.3 µM | 2.2 µM |  | 
7 | C[C@H](OC(=O)c1cc(F)cc2c(Cl)c(CNC(=O)c3cnn4cccnc34)oc12)C(F)(F)F [EXAMPLE 289, (S)-1,1,1-Trifluoropropan-2-yl 3-chloro-5-fluoro-2-((pyrazolo[1,5-a]pyrimidine-3-carboxamido)methyl)benzofuran-7-carboxylate] |  |  | 0.71 µM | 0.62 µM
8 | Cc1cc(C(=O)OC(CF)CF)c2oc(CNC(=O)c3cnn4cccnc34)cc2c1 [EXAMPLE 274, 1,3-Difluoropropan-2-yl 5-methyl-2-((pyrazolo[1,5-a]pyrimidine-3-carboxamido)methyl)-benzofuran-7-carboxylate] |  |  | 0.83 µM | 0.8 µM
9 | C[C@H](NC(=O)c1cnn2cccnc12)c1oc2c(C(=O)OCC(F)(F)F)cc(Cl)cc2c1Cl [EXAMPLE 297, 2,2,2-Trifluoroethyl (S)-3,5-dichloro-2-(1-(pyrazolo[1,5-a]pyrimidine-3-carboxamido)ethyl)benzofuran-7-carboxylate] |  |  | 3.2 µM | 3.1 µM
10 | CCOC(OC(=O)c1cc(F)cc2cc(CNC(=O)c3cnn4cccnc34)oc12)C(F)F (single isomer, unassigned) [EXAMPLE 324, 1-Ethoxy-2,2-difluoroethyl 5-fluoro-2-((pyrazolo[1,5-a]pyrimidine-3-carboxamido)methyl)benzofuran-7-carboxylate] | 1.7 µM | 1.5 µM |  | 
11 | COC(=O)c1ccc(C)c2cc(Cn3cnc4ccncc4c3=O)oc12 [EXAMPLE 29, Methyl 4-methyl-2-((4-oxopyrido[4,3-d]pyrimidin-3(4H)-yl)methyl)benzofuran-7-carboxylate] |  |  | 2.9 µM | 3 µM
12 | CC(OC(=O)c1cccc2cc(CN3CCc4ccncc4C3=O)oc12)C(F)(F)F (single isomer, unassigned) [EXAMPLE 308, 1,1,1-Trifluoropropan-2-yl 2-((1-oxo-3,4-dihydro-2,7-naphthyridin-2(1H)-yl)methyl)benzo-furan-7-carboxylate] | 30 µM | 25 µM |  | 
13 | COC(OC(=O)c1cc(F)cc2cc(CNC(=O)c3cnc4cccnn34)oc12)C(F)(F)F (single isomer, unassigned) [EXAMPLE 313, 2,2,2-Trifluoro-1-methoxyethyl 5-fluoro-2-((imidazo[1,2-b]pyridazine-3-carboxamido)methyl)benzofuran-7-carboxylate] |  |  | 3 µM | 3.1 µM
14 | COC(=O)c1cc(C2CC2)cc2cc(CNC(=O)c3cnn4cccnc34)oc12 [Example 99, Methyl 5-cyclopropyl-2-((pyrazolo[1,5-a]pyrimidine-3-carboxamido)methyl)benzofuran-7-carboxylate] |  |  | 12 µM | 17 µM
15 | O=C(OCC(F)(F)F)c1ccc(Cl)c2cc(CNC(=O)c3cnn4cccnc34)oc12 [EXAMPLE 357, 2,2,2-Trifluoroethyl 4-chloro-2-((pyrazolo[1,5-a]pyrimidine-3-carboxamido)methyl)benzofuran-7-carboxylate] |  |  | 1 µM | 0.9 µM
16 | CC(CC(F)(F)F)OC(=O)c1cc(Cl)cc2cc(CNC(=O)c3cnn4cccnc34)oc12 (single isomer, unassigned) [EXAMPLE 335, 4,4,4-Trifluorobutan-2-yl 5-chloro-2-((pyrazolo[1,5-a]pyrimidine-3-carboxamido)methyl)benzofuran-7-carboxylate] |  |  | 3.5 µM | 3.5 µM

Row | SMILES | EC50 [1] | EC50 [2] | EC50 ([1]; Homo sapiens, THP1-Dual, 20 h) | EC50 ([2]; Homo sapiens, THP1-Dual, 20 h)
17 | CCSC(=O)c1cc(F)cc2cc(CNC(=O)c3cnn4cccnc34)oc12 [EXAMPLE 387, S-Ethyl 5-fluoro-2-((pyrazolo[1,5-a]pyrimidine-3-carboxamido)methyl)benzofuran-7-carbothioate] |  |  | 2.1 µM | 1.9 µM
18 | COC(=O)c1ccc(C)c2cc(Cn3ccc4ccncc4c3=O)oc12 [EXAMPLE 32] |  |  | 3.4 µM | 3.5 µM
19 | COC(=O)Cc1cc(C)cc2cc(CNC(=O)c3cnn4cccnc34)oc12 [Example 98, Methyl 2-(5-methyl-2-((pyrazolo[1,5-a]pyrimidine-3-carboxamido)methyl)benzofuran-7-yl)acetate] |  |  | 10 µM | 11 µM
20 | COC(=O)c1cc(F)cc2c(Cl)c([C@H](C)NC(=O)c3cnn4cccnc34)oc12 [EXAMPLE 111, Methyl (S)-3-chloro-5-fluoro-2-(1-(pyrazolo[1,5-a]pyrimidine-3-carboxamido)ethyl)benzofuran-7-carboxylate] |  |  | 1.4 µM | 1.2 µM
21 | COCCOCCOC(=O)c1cc(Cl)cc2cc(CNC(=O)c3cnn4cccnc34)oc12 [EXAMPLE 258, 2-(2-Methoxyethoxy)ethyl 5-chloro-2-((pyrazolo[1,5-a]pyrimidine-3-carboxamido)methyl)benzofuran-7-carboxylate] |  |  | 3.5 µM | 3 µM
22 | Cc1cc(C(=O)O)c2oc(CNC(=O)c3cnn4cccnc34)cc2c1 [EXAMPLE 158, 5-methyl-2-((pyrazolo[1,5-a]pyrimidine-3-carboxamido)methyl)benzofuran-7-carboxylic acid] |  |  | 52 µM | 63 µM
23 | COC(=O)c1c(F)c(F)cc2cc(CNC(=O)c3cnn4cccnc34)oc12 [EXAMPLE 126, Methyl 5,6-difluoro-2-((pyrazolo[1,5-a]pyrimidine-3-carboxamido)methyl)benzofuran-7-carboxylate] |  |  | 1.6 µM | 1.4 µM
24 | CCOc1ncncc1C(=O)NCc1cc2cc(Cl)cc(C(=O)O[C@H](C)C(F)(F)F)c2o1 [EXAMPLE 263, (R)-1,1,1-trifluoropropan-2-yl 5-chloro-2-((4-ethoxypyrimidine-5-carboxamido)methyl)benzofuran-7-carboxylate] |  |  | 5.2 µM | 4.8 µM
25 | CCOC(=O)OC(C)OC(=O)c1cc(Cl)cc2cc(CNC(=O)c3cnn4cccnc34)oc12 (racemic) [EXAMPLE 261, 1-((Ethoxycarbonyl)oxy)ethyl 5-chloro-2-((pyrazolo[1,5-a]pyrimidine-3-carboxamido)methyl)benzofuran-7-carboxylate] |  |  | 0.82 µM | 0.95 µM
26 | O=C(OCC(F)(F)F)c1cc(F)cc2cc(CNC(=O)c3cnc4cccnn34)oc12 [EXAMPLE 230, 2,2,2-Trifluoroethyl 5-fluoro-2-((imidazo[1,2-b]pyridazine-3-carboxamido)methyl)benzofuran-7-carboxylate] |  |  | 0.95 µM | 0.93 µM
27 | O=C(OCC(F)(F)F)c1cc(F)cc2cc(CN3CCc4ccncc4C3=O)oc12 [EXAMPLE 228, 2,2,2-Trifluoroethyl 5-fluoro-2-((1-oxo-3,4-dihydro-2,7-naphthyridin-2(1H)-yl)methyl)benzofuran-7-carboxylate] |  |  | 6.5 µM | 6.1 µM
28 | Cc1ccc(C(=O)OCC(F)(F)F)c2oc(Cn3ccc4ccncc4c3=O)cc12 [EXAMPLE 359] |  |  | 4 µM | 3.8 µM
29 | COC(=O)c1cc(C)cc2cc(CNC(=O)c3cncc4cccnc34)oc12 [Example 92, methyl 2-((1,6-naphthyridine-8-carboxamido)methyl)-5-methylbenzofuran-7-carboxylate] |  |  | 0.81 µM | 0.8 µM
30 | COC(=O)c1ccc(C)c2cc(CN3Cc4ccncc4C3=O)oc12 [EXAMPLE 30, Methyl 4-methyl-2-((3-oxo-1,3-dihydro-2H-pyrrolo[3,4-c]pyridin-2-yl)methyl)benzofuran-7-carboxylate] |  |  | 31 µM | 27 µM
31 | COC(=O)c1cc(Cl)cc2cc(CNC(=O)c3cncc(Br)n3)oc12 [Example 62, Methyl 2-((6-bromopyrazine-2-carboxamido)methyl)-5-chlorobenzofuran-7-carboxylate] |  |  | 46 µM | 42 µM
